This is an account of results in patent publication US12173320B2, “Production of red blood cells and platelets from stem cells” (BOSTON MEDICAL CENTER CORPORATION, priority 2012, dated 2024).

Data set [1] has as its system AhR (CYP1B1 target gene expression) in iPSCs. The data set can be described thus: Quantitative RT-PCR of AhR target gene CYP1B1 in iPSCs. The data set is classed as cell-based, human. On the procedure:
RNA was extracted using the RNeasy kit (Qiagen) according to the manufacturer's instructions and DNase treated using the DNA-free kit (Ambion AM1906). Reverse transcription into cDNA was performed using the High Capacity cDNA Reverse Transcription Kit (Applied Biosystems 4368814). Quantitative (real time) PCR amplification of cDNA was performed using Taqman probes for AHR (Hs00169233 ml), CYP1B1 (Hs002382916 sl), HBA (Hs00361191 gl), HBB (Hs00758889 sl), HBG (Hs01629437 sl), vWF (Hs00169795 ml), PF4 (Hs00427220 gl), NF-E2 (Hs00232351 ml) and CD62P (Hs00927900 ml) and run on the Applied Biosystems StepOne machine. […]
To characterize AhR expression and functionality in both undifferentiated iPSCs and directly differentiated MEPs, AhR protein levels were determined via Western blot in these populations. AhR receptor was robustly expressed in day 30 and day 60 MEPs (FIG. 4A). However, AhR protein was not detected by western blotting in iPSC populations, and we postulated that AhR was expressed at extremely low levels in iPSCs, i.e., below the level of detectability with the antibodies used for Western blots. To test this hypothesis, the ability of FICZ to induce a prototypic AhR-target gene, CYPIB1, in iPSCs or, as a positive control, MEPs was assessed by quantitative RT-PCR.

The test system of data set [2] is AhR (CYP1B1 target gene expression) in MEPs. The data set can be described thus: Quantitative RT-PCR of AhR target gene CYP1B1 in MEPs. The data set is classed as cell-based, human. On the procedure: 6-formylindolo[3,2-b]carbazole (FICZ), an AHR small molecule agonist, and CH223191, an AHR competitive inhibitor were used for these assays. CH223191 was added to mesoderm cultures at Day 6 at 5 μM (lx) and 2.504 (0.5×). 0.2 μM FICZ was added to cultures at Day 7 and media was added daily. DMSO was used as a vehicle control.
(§1) RNA was extracted using the RNeasy kit (Qiagen) according to the manufacturer's instructions and DNase treated using the DNA-free kit (Ambion AM1906). Reverse transcription into cDNA was performed using the High Capacity cDNA Reverse Transcription Kit (Applied Biosystems 4368814). Quantitative (real time) PCR amplification of cDNA was performed using Taqman probes for AHR (Hs00169233 ml), CYP1B1 (Hs002382916 sl), HBA (Hs00361191 gl), HBB (Hs00758889 sl), HBG (Hs01629437 sl), vWF (Hs00169795 ml), PF4 (Hs00427220 gl), NF-E2 (Hs00232351 ml) and CD62P (Hs00927900 ml) and run on the Applied Biosystems StepOne machine. Relative gene expression was normalized to B-actin (Hs99999903 ml).
To characterize AhR expression and functionality in both undifferentiated iPSCs and directly differentiated MEPs, AhR protein levels were determined via Western blot in these populations. […] To test this hypothesis, the ability of FICZ to induce a prototypic AhR-target gene, CYPIB1, in iPSCs or, as a positive control, MEPs was assessed by quantitative RT-PCR.

The test system of data set [3] is AhR. The data set can be described thus: Lentiviral AhR reporter (MMTV-DRE dsRed / luciferase) in MEPs. The data set is classed as cell-based, human. Particulars: day 30 MEPs, FICZ increased to 0.4 μM.
Data set [4] relates to AhR (CYP1B1 target gene expression). In words: In vivo CYP1B1 target gene expression in liver and spleen (quantitative RT-PCR). On the set-up: species or system mouse. Particulars: after 3 weeks of FICZ. The protocol: as §1
C57B16 mice were injected daily intraperitoneally with FICZ suspended in vegetable oil using a weekly dose escalation scheme (Week 1: 1 mg/kg; Week 2: 2 mg/kg; Week 3: 4 mg/kg). Blood cell counts were assayed by Hemavet quantification of peripheral blood bleeds, at all 3 time points (Day 7, 14, and 21). Following the 3 week time point, mice were sacrificed and livers and spleens harvested for quantitative RT-PCR analyses.
To determine if FICZ treatment or whole animals would affect RBC or platelet production, C57B16 mice were injected daily intraperitoneally with FICZ suspended in vegetable oil using a weekly dose escalation scheme (Week 1: 1 mg/kg; Week 2: 2 mg/kg; Week 3: 4 mg/kg). […]

The test system of data set [5] is day 30 MEPs. In words: EDU incorporation proliferation assay. Particulars: versus untreated cells. The data set is classed as cell-based, human. The text has this:
In a subsequent experiment, […] (EDU) incorporation in day 30 MEPs was used to compare proliferation of FICZ-treated MEPS and control untreated MEPs, EDU is a labeling chemical that intercolates into the DNA of a cell and allows for the explicit tracking of proliferation.

As to `O=Cc1c2c(cc3c1=Nc1ccccc1-3)=Nc1ccccc1-2` [FICZ, 6-formylindolo[3,2-b]carbazole], the CYP1B1 expression entry in data set [1] is recorded as “statistically significant increases”. Besides, the CYP1B1 expression result in data set [2] (Day 15 MEPs, with vs. without FICZ, normalized to β-actin) is “statistically significant increases”. Further, the “responsiveness to AhR agonist (CYP1B1 RT-PCR)” value in data set [2] (MEP, normalized to GAPDH) is “responsive”. Moreover, the DsRed reporter expression result in data set [3] is “significant increase”. In data set [4], the “CYP1B1 target gene expression in liver” value is listed as “robust upregulation” and the “CYP1B1 target gene expression in spleen” value was “robust upregulation”. Moreover, the “proliferation by EDU incorporation” value in data set [5] is “far more proliferative than untreated cells”.
